# How the values were obtained:
# human α3β4 nAChRs = target: T1, human α3β4 nAChRs (Homo sapiens, UniProt P30926+P32297); assay: Nicotinic receptor radioligand binding SPA, [3H]-epibatidine, α3β4; details: HEK-293 membranes, 2 nM [3H]-epibatidine
# T1 construct: expressed in transfected cells; host or cells: HEK-293
# Description: (§1) Cell pastes from large-scale production of HEK-293 cells expressing human α4β2, or α3β4 nAChRs are homogenised in 4 volumes of the appropriate buffer (50 mM Tris.HCl containing 150 mM NaCl and 5 mM KCl, pH 7.4). The homogenate is centrifuged twice (40,000 g, 10 minutes, 4° C.) and the pellets re-suspended in 4 volumes of Tris.HCl buffer after the first spin and 8 volumes after the second spin. The re-suspended homogenate is centrifuged (100 g, 10 minutes, 4° C.) and the supernatant kept and re-centrifuged (40,000 g, 20 minutes, 4° C.). The pellet is re-suspended in Tris.HCl buffer supplemented with 10% w/v sucrose. The membrane preparation is stored in 1 ml aliquots at −80° C. until required. The protein concentration of the membrane preparation is determined using a BCA protein assay reagent kit.
# (§2) 96-well SPA radioligand binding assays are performed in a final volume of 250 μl Tris-HCl buffer (50 mM Tris-HCl, 150 mM NaCl, 5 mM KCl, pH 7.4) with 1 nM ((α4β2) or 2 nM (α3β4) [^3H]-epibatidine (53 Ci/mmol; Amersham); 1 mg/well ((α4β2) or 1.5 mg/well (α3β4) WGA-coated PVT SPA beads (Amersham) and 30 μg/well membrane protein for all 3 assay types. Non-specific binding (<10% for all 3 assay types) is determined using 10 μM epibatidine.
# (§3) Reactions are allowed to equilibrate for 2-4 hours at room temperature prior to reading on a Trilux Scintillation counter (Perkin Elmer). […]
# human α4β2 nAChRs = target: T2, human α4β2 nAChRs (Homo sapiens, UniProt P17787+P43681); assay: Nicotinic receptor radioligand binding SPA, [3H]-epibatidine, α4β2
# T2 construct: expressed in transfected cells; host or cells: HEK-293
# T2 sequence (P43681 29-627): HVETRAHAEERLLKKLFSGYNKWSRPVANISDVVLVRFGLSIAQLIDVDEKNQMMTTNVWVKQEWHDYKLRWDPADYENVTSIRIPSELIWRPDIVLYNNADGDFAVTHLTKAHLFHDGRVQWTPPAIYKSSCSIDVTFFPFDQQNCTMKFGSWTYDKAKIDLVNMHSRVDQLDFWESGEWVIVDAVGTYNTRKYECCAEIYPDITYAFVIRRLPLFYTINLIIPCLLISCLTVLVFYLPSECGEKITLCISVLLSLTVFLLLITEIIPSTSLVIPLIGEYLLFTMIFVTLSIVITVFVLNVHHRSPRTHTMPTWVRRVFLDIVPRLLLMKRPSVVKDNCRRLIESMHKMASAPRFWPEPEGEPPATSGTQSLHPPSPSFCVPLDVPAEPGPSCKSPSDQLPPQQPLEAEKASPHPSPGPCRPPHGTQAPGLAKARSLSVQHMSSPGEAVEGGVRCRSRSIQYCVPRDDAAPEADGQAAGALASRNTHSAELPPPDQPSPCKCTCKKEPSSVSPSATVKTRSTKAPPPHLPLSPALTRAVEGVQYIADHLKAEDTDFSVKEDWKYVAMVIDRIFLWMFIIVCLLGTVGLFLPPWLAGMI
# T2 sequence (P17787 26-502): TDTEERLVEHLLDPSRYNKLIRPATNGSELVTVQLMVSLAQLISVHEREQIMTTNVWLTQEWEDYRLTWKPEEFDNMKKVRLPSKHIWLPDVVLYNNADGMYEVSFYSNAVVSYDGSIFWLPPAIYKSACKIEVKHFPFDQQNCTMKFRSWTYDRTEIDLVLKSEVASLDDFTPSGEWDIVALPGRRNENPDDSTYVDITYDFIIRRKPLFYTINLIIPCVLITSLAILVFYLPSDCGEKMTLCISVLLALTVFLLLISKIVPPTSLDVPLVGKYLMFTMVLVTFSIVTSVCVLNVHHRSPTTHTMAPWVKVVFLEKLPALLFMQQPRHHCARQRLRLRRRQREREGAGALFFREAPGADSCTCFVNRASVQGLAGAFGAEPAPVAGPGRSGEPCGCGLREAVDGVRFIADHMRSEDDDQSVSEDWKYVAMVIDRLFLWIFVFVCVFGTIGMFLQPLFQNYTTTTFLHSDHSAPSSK
# Description: as §1, §2, §3
# rat striatal slices = assay: [3H] Dopamine release assay from rat striatal slices; format: cell-based
# Description: [^3H] Dopamine Release Assay from Rat Striatal Slices
# Release of [^3H]dopamine from rat striatal slices is performed as follows. Male Lister-Hooded rats (250-350 g) are sacrificed by exposure to CO2 followed by cervical dislocation. Striata from 2 rats is dissected and chopped 3 times at 150 μm using a Mcllwain tissue chopper, each time rotating the tissue through 60°. Slices are dispersed in Krebs bicarbonate buffer (118 mM NaCl, 2.4 mM KCl, 2.4 mM CaCl2.2H2O, 1.2 mM KH2PO4, 1.2 mM MgSO4.7H2O, 25 mM NaHCO3, 10 mM glucose, 1 mM ascorbic acid, gassed with 5% CO2/95% O2 for 1 h, pH 7.4) including […] pargyline, and incubated with [^3H]dopamine (50 nM) for 30 minutes at 37° C. […]
# Optiphase Supermix (Wallac) scintillation fluid (170 μl) is added to each well of the collection plates prior to plates being heat sealed and radioactivity quantified using a Wallac 1450 Microbeta 96-well plate counter (Wallac Oy, Turku, Finland, counting efficiency 25%). Radioactivity remaining in the slices is measured by digestion of the tissue in 0.2 ml Solvable (Packard Biosciences) for 1 h followed by addition of 0.5 ml isopropyl alcohol and 4.5 ml Hlionic Fluor scintillation fluid (Packard Biosciences). Radioactivity was then quantified using a Wallac 1410 scintillation counter (Wallac Oy, Turku, Finland, counting efficiency 35%). […]
# T1 sequence (P32297 32-505): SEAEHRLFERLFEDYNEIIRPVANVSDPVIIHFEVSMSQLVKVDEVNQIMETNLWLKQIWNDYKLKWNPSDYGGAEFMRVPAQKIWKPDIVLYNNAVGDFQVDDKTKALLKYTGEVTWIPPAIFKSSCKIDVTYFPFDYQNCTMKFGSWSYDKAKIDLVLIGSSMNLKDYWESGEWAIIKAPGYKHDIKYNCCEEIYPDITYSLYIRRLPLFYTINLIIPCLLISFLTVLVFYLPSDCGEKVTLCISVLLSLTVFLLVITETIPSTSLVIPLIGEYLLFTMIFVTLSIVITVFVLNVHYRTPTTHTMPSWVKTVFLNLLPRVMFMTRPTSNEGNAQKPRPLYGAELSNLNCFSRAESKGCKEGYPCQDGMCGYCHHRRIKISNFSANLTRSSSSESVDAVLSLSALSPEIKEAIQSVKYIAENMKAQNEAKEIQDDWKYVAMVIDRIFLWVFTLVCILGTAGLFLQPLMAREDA
# T1 sequence (P30926 22-498): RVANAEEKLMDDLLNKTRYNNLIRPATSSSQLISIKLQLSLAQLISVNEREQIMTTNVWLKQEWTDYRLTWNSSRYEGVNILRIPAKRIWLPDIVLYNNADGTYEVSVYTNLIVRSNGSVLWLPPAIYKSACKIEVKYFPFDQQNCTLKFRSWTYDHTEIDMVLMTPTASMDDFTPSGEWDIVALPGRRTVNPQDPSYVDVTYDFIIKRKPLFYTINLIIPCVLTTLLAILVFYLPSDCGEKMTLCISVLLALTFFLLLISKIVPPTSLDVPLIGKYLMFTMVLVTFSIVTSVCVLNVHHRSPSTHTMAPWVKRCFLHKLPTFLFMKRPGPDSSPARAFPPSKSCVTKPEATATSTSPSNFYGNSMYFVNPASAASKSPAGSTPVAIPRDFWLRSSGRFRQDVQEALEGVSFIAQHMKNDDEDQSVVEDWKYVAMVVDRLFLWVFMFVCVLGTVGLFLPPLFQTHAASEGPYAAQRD
compound,measurement,setting,value
Fc1cc(C2=CC3CNCC(C2)C3)cc(-c2ccoc2)c1 (centres unmarked) [Example 20],Ki,human α3β4 nAChRs,479 nM
same,Ki,"human α4β2 nAChRs; HEK-293 membranes, 1 nM [3H]-epibatidine",5.37 nM
same,Ki α3β4/Ki α4β2,human α4β2 nAChRs; selectivity for α4β2 over α3β4,89.2
same,EC50,rat striatal slices,135 nM
same,Efficacy Dopamine release %,rat striatal slices,41.7%
